The values that follow come from US6875761B2 (Eisai Co., Ltd., priority 1997, dated 2005).

The target in one experiment is T1, serotonin 2 receptor (Rattus norvegicus, UniProt P14842).
T1 construct: To the receptor fraction of the cerebral cortex were added a test compound and 0.3 nM of [^3H] ketanserin; from tissue; host or cells: rat cerebral cortex membrane fraction
Nature of the experiment: Binding test on [3H] ketanserin, cerebral cortex receptor fraction. Details: species or system SD rats. To be noted: 0.3 nM [3H] ketanserin, 37° C. 15 min, read-out: 5HT2.

Another experiment deals with T2, serotonin 1A receptor (Rattus norvegicus, UniProt P19327).
T2 construct: To the receptor fraction of the hippocampus were added a test compound and 0.5 nM of [^3H]; 8-hydroxy-dipropylaminotetralin; from tissue; host or cells: rat hippocampus membrane fraction
T2 sequence (P19327 1-422): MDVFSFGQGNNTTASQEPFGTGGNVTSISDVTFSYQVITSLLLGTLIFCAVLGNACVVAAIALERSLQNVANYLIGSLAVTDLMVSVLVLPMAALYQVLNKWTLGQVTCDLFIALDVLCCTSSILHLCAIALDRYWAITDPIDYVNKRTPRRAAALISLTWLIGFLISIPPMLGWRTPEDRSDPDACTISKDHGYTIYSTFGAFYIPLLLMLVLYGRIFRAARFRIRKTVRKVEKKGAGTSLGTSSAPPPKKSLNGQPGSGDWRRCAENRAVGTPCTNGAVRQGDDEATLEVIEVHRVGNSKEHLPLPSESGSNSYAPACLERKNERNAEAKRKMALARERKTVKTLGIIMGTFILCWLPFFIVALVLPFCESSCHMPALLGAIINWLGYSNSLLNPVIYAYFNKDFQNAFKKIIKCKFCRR
Kind of experiment: Binding test on [3H] 8-hydroxy-dipropylaminotetralin, hippocampus receptor fraction. The conditions noted are these: rat hippocampus receptor fraction, 0.5 nM [3H] 8-OH-DPAT, room temperature 30 min; read-out: 5HT1. Further details: species or system SD rats.

pKi: −log10 of the molar value. Where a name gives a salt, the structure may show the parent alone.

T1 sequence (P14842 whole entry): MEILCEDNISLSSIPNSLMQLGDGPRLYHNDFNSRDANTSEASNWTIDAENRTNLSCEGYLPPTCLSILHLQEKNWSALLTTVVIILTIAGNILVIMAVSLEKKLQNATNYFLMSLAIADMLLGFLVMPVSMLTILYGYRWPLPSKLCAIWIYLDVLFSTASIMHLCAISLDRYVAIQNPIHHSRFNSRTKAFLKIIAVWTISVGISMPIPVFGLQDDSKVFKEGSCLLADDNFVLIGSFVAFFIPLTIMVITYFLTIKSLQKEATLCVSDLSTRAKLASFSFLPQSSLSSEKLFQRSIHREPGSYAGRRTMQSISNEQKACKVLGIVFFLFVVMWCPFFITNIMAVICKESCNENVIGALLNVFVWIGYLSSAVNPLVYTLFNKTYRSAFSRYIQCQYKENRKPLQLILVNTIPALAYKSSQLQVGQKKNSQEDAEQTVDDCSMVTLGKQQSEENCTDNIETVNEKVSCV
Procedure for serotonin 1A receptor: (1) Binding test on serotonin 1A, serotonin 2 and α1 adrenalin receptors
The following reagents were employed in this test. • 1) Serotonin binoxalate (5-HT binoxalate, mfd. by Sigma Chemical Co.). • 2) Methysergide maleate (mfd. by RBI).
As radioisotope-labeled compounds, use was made of the following reagents (mfd. by NEN). • 3) [^3H] 8-Hydroxy-dipropylaminotetralin (8-OH-DPAT). • 4) [^3H]
Methysergide maleate was dissolved in distilled water before using.
Use was made of SD rats aged 6 to 8 weeks.
The rats were sacrificed by dcapitation to extirpate the cerebra. The hippocampus and cortex were separated therefrom and employed in the binding tests respectively on the serotonin 1A receptor and the serotonin 2 receptor.
The hippocampus was mixed with 50 times (on the wet weight basis) as much as 0.32 M sucrose solution while the cortex was mixed with 10 times as much the same solution. Each mixture was homogenized by using a Teflon glass homogenizer and centrifuged as 1,000× g for 10 min. The supernatant thus obtained was further centrifuged at 20,000× g for 20 min. The obtained precipitate was re-suspended in 50 times (based on the initial wet weight; in the case of the hippocampus) or 10 times (in the case of the cortex) as much a 50 Tris hydrochloride (pH 7.4) and incubated at room temperature for 30 min. After centrifuging at 20,000× g for 20 min, the obtained precipitate was further suspended and centrifuged twice each in the same manner. The precipitate thus obtained was suspended in 100 times (based on the initial wet weight; in the case of the hippocampus) or 20 times (in the case of the cortex) as much a 50 mM Tris hydrochloride solution (pH 7.4) to thereby give a receptor fraction. This receptor fraction was stored at −80° C. until using.
To the receptor fraction of the hippocampus were added a test compound and 0.5 nM of [^3H] 8-hydroxy-dipropylaminotetralin and the resultant mixture was incubated at room temperature for 30 min. Next, it was filtered through a glass filter with the use of a cell harvester. After washing the glass filter with 50 mM Tris hydrochloride (pH 7.4), the radioactivity of the receptor was measured with a liquid scintillation counter. The binding detected in the presence of 10 μM of serotonin binoxalate was referred to as the nonspecific binding.
IC50 was calculated by the probit method, while Ki was determined in accordance with the following formula: Ki=IC50(1+c/Kd) wherein c represents the concentration of the radioisotope-labeled compound, and Kd represents the dissociation constant of the radioisotope-labeled compound with respect to the receptor determined by Scatchard's analysis.

Regarding `CCN1CCN(c2nc(-c3ccc(N4CCC(CO)CC4)nc3)cc3ccccc23)CC1` [Example 154, 1-(4-ethylpiperazin-1-yl)-3-[2-(4-hydroxymethylpiperidin-1-yl)pyridin-5-yl]isoquinoline trihydrochloride], the results for the pKi at serotonin 2 receptor and on serotonin 1A receptor were 8.06 and 8.80, respectively.

Take `CCN1CCN(c2nc(C(C)c3ccc(OC)cc3)cc3ccccc23)CC1` (stereo not drawn) [Example 102, 3-[α-Methyl-(4-methoxybenzyl)]-1-(4-ethylpiperazin-1-yl)isoquinoline Oxalate]: the results for the pKi at serotonin 2 receptor and at serotonin 1A receptor were 6.88 and 6.89, respectively.

For `CCN1CCN(c2nc(-c3ccc([C@H]4CC[C@H](O)CC4)cc3)cc3ccccc23)CC1` [Example 398, 1-(4-Ethylpiperazin-1-yl)-3-[4-(trans-4-Hydroxycyclohexyl)Phenyl]Isoquinoline Dihydrochloride], the figures for the pKi on serotonin 2 receptor and on serotonin 1A receptor were 8.23 and 8.10, respectively.

For `CCN1CCN(c2nc(-c3ccc(S(=O)(=O)CC)nc3)cc3ccccc23)CC1` [Example 130, 3-[(2-Ethylsulfonylpyridin)-5-yl]-1-(4-Ethylpiperazin-1-yl)Isoquinoline Hydrochloride], the figures for the pKi on serotonin 2 receptor and on serotonin 1A receptor were 7.77 and 7.61, respectively.

Take `CCN1CCN(c2nc(NC(=O)c3ccccc3)cc3ccccc23)CC1` [Example 421, 3-benzamide-1-(4-ethylpiperazin-1-yl)isoquinoline]: the pKi at serotonin 2 receptor is 6.89; on serotonin 1A receptor it was 8.02.

For `CCN1CCN(c2nc(-c3ccc(CC(C)=O)cc3)cc3ccccc23)CC1` [Example 375, 1-(4-ethylpiperazin-1-yl)-3-[4-(2-oxopropyl)phenyl]isoquinoline dihydrochloride], the pKi is 8.12 at serotonin 2 receptor and 7.52 on serotonin 1A receptor.

In the case of `CCN1CCN(c2nc(-c3cccc(OCCO)c3)cc3ccccc23)CC1` [Example 329, 1-(4-Ethylpiperazin-1-yl)-3-[3-(2-hydroxyethoxy)phenyl]isoquinoline dihydrochloride], the pKi at serotonin 2 receptor was 7.13; at serotonin 1A receptor, 7.50.

On to `CCN1CCN(c2nc(-c3ccc(N(C)C)cc3)cc3ccccc23)CC1` [Example 66, 3-[4-(N,N-Dimethylamino)Phenyl]-1-(4-Ethylpiperazin-1-Yl)Isoquinoline Dihydrochloride], for which the results for the pKi at serotonin 2 receptor and on serotonin 1A receptor were 7.67 and 7.28, respectively.

On to `CCN1CCN(c2nc(-c3ccc(O[C@@H](C)CO)cc3)cc3ccoc23)CC1` [Example 303, 7-(1-ethylpiperazin-4-yl)-5-{4-[(S)-2-hydroxy-1-methylethoxy]phenyl}furo[2,3-c]pyridine dihydrochloride], for which the pKi on serotonin 2 receptor is 7.35; on serotonin 1A receptor it was 9.28.

For the compound `CCN1CCN(c2nc(-c3ccc(C(C)(C)CCO)cc3)cc3ccccc23)CC1` [Example 390, Oxalate], the pKi on serotonin 2 receptor was 7.95; at serotonin 1A receptor it was 8.12.

With `CCN1CCN(c2nc(-c3ccc(CC(C)CO)cc3)cc3ccccc23)CC1` (centres unmarked) [Example 386, 1-(4-Ethylpiperazin-1-yl)-3-[4-(3-Hydroxy-2-Methylpropyl)Phenyl]Isoquinoline Oxalate], the pKi on serotonin 2 receptor was 8.62; at serotonin 1A receptor, 8.05.

As for `CCN1CCN(c2nc(-c3ccc(N4C[C@@H](C)O[C@@H](C)C4)nc3)cc3ccccc23)CC1` [Example 149, 3-[2-(2,6-dimethylmorpholin-4-yl)pyridin-5-yl]-1-(4-ethylpiperazin-1-yl)isoquinoline trihydrochloride], the pKi is 7.66 at serotonin 2 receptor and 7.43 at serotonin 1A receptor.

Regarding `CCN1CCN(c2nc(-c3ccc(OC)cc3)cc3ccccc23)CC1` [Example 10, 1-(4-Ethylpiperazin-1-yl)-3-(4-methoxyphenyl)isoquinoline], the pKi at serotonin 2 receptor was 7.96; on serotonin 1A receptor it was 7.22.

In the case of `CCN1CCN(c2nc(-c3ccc(C(=O)NCCO)cc3)cc3ccccc23)CC1` [Example 346, 1-(4-ethylpiperazin-1-yl)-3-{4-(N-(2-hydroxyethyl)carbamoyl]phenyl}isoquinoline dihydrochloride], the pKi at serotonin 2 receptor was 7.38; on serotonin 1A receptor it was 7.50.

Take `CCN1CCN(c2nc(-c3ccc(N4CC[S+]([O-])CC4)nc3)cc3ccccc23)CC1` [Example 151, 1-(4-ethylpiperazin-1-yl)-3-[2-(S-oxythiomorpholin-4-yl)pyridin-5-yl]isoquinoline trihydrochloride]: the pKi is 7.10 on serotonin 2 receptor and 8.15 at serotonin 1A receptor.

For `CCN1CCN(c2nc(/C=C/c3ccc(S(C)(=O)=O)cc3)cc3ccccc23)CC1` [Example 201, 3-[(E)-2-(4-Methylsulfonylphenyl)Ethenyl]-1-(4-Ethylpiperazin-1-Yl)Isoquinoline Hydrochloride], the values for the pKi at serotonin 2 receptor and at serotonin 1A receptor were 8.53 and 7.44, respectively.

Regarding `CCN1CCN(c2nc(-c3ccc(C(CC(C)O)OC)cc3)cc3ccccc23)CC1` (centres unmarked) [Example 26, 3-[4-(3-hydroxy-1-methoxybutyl)phenyl]-1-(4-ethylpiperazin-1-yl)isoquinoline], the pKi is 7.26 on serotonin 2 receptor and 8.07 on serotonin 1A receptor.

For the compound `CCN1CCN(c2nc(-c3ccc(OCCCO)cc3)cc3ccsc23)CC1` [Example 434, 7-(4-ethylpiperazin-1-yl)-5-[4-(3-hydroxypropoxy)phenyl]thieno[2,3-c]pyridine dihydrochloride], the pKi is 7.22 at serotonin 2 receptor and 7.19 at serotonin 1A receptor.

For `CCN1CCN(c2nc(-c3ccc(OC(F)(F)F)cc3)cc3ccccc23)CC1` [Example 339, 1-(4-ethylpiperazin-1-yl)-3-(4-trifluoromethoxyphenyl)isoquinoline dihydrochloride], the values for the pKi on serotonin 2 receptor and on serotonin 1A receptor were 7.72 and 6.67, respectively.

For the compound `CCN1CCN(c2nc(-c3ccc(CCCOC(C)C)nc3)cc3ccccc23)CC1` [Example 143, 1-(1-Ethylpiperazin-4-yl)-3-[2-[3-(2-Propoxy)Propyl]Pyridin-5-yl]Isoquinoline Oxalate], the pKi on serotonin 2 receptor was 7.76; at serotonin 1A receptor it was 8.66.

With `CCN1CCN(c2nc(/C=C/c3ccc(N4CCOCC4)cc3)cc3ccccc23)CC1` [Example 205, 3-{(E)-2-[4-(4-Morpholinyl)Phenyl]Ethenyl}-1-(4-Ethylpiperazin-1-Yl)Isoquinoline Oxalate], the pKi on serotonin 2 receptor is 9.01; at serotonin 1A receptor it was 7.48.

With `CCN1CCN(c2nc(CC(O)c3ccccc3)cc3ccccc23)CC1` (centres unmarked) [Example 420, 1-(4-ethylpiperazin-1-yl)-3-(2-hydroxy-2-phenylethyl)isoquinoline], the pKi was 7.65 at serotonin 2 receptor and 6.93 at serotonin 1A receptor.

On to `CCCC(O)c1ccc(-c2cc3ccsc3c(N3CCN(CC)CC3)n2)cc1` (centres unmarked) [Example 446, 7-(4-ethylpiperazin-1-yl)-5-[4-(1-hydroxybutyl)phenyl]thieno[2,3-c]pyridine dihydrochloride], for which the pKi on serotonin 2 receptor was 7.52; on serotonin 1A receptor, 7.91.

Take `CCN1CCN(c2nc(-c3ccc(C4(O)CCOCC4)cc3)cc3ccccc23)CC1` [Example 410, 1-(4-ethylpiperazin-1-yl)-3-[4-(4-hydroxytetrahydropyran-4-yl)phenyl]isoquinoline]: the results for the pKi on serotonin 2 receptor and at serotonin 1A receptor were 8.68 and 7.68, respectively.

In the case of `CCN1CCN(c2nc(-c3ccc(OCCCc4ccncc4)cc3)cc3ccccc23)CC1` [Example 57, 3-{4-[3-(4-Pyridyl)Propoxy]Phenyl}-1-(4-Ethylpiperazin-1-Yl)Isoquinoline Hydrochloride], the pKi at serotonin 2 receptor is 8.34; at serotonin 1A receptor it was 7.24.
